Measurements taken from patent publication US11419806B2, “Prebiotic oral care methods using a saccharide” (Colgate-Palmolive Company, priority 2013, dated 2022).

Legend:
Assay in all cases: Twenty-four hour optical density growth in BHI
Assay type in all cases: cell-based
Actinomyces naeslundii = details: A naeslundii
Summary of the method: (§1)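 Overnight anaerobic cultures at 37° C were diluted in BHI to 1×10^7 CFU/ml, then mixed with each saccharide (myo-inositol, D-lactitol, D-turanose, N-acetyl-D-mannosamine; final 5–25 μmol/ml). After 24 h anaerobic incubation, optical density at 630 nm was compared with the start reading and with an unsupplemented control.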

Tannerella forsythia = details: T forsythia
Summary of the method: as §1

[1] = test system: Aggregatibacter actinomycetemcomitans; details: A actinomycetemcomitans
Streptococcus sobrinus = details: S sobrinus
Prevotella intermedia = details: P intermedia
Summary of the method: as §1

Veillonella parvula = details: V parvula
Summary of the method: as §1

Capnocytophaga sputigena = details: C sputigena
Summary of the method: as §1

Streptococcus mitis = details: S mitis
Streptococcus gordonii = details: S gordonii
Actinomyces viscosus = details: A viscosus
Summary of the method: as §1

O[C@H]1[C@H](O)[C@@H](O)[C@H](O)[C@@H](O)[C@H]1O [Myo-Inositol, (1R,2R,3S,4S,5R,6S)-cyclohexane-1,2,3,4,5,6-hexol]
extent of growth: maximal OD630 over 24 hr divided by maximal OD of control (control = 1) (Actinomyces naeslundii; 5 μmol/ml): 1.0172
extent of growth: maximal OD630 over 24 hr divided by maximal OD of control (control = 1) (Actinomyces naeslundii; 10 μmol/ml): 1.0190
extent of growth: maximal OD630 over 24 hr divided by maximal OD of control (control = 1) (Actinomyces naeslundii; 20 μmol/ml): 1.0051
extent of growth: maximal OD630 over 24 hr divided by maximal OD of control (control = 1) (Actinomyces naeslundii; 25 μmol/ml): 1.0000
extent of growth: maximal OD630 over 24 hr divided by maximal OD of control (control = 1) (Tannerella forsythia; 5 μmol/ml): 0.9323
extent of growth: maximal OD630 over 24 hr divided by maximal OD of control (control = 1) (Tannerella forsythia; 10 μmol/ml): 0.9359
extent of growth: maximal OD630 over 24 hr divided by maximal OD of control (control = 1) (Tannerella forsythia; 20 μmol/ml): 0.9286
extent of growth: maximal OD630 over 24 hr divided by maximal OD of control (control = 1) (Tannerella forsythia; 25 μmol/ml): 0.9460
extent of growth: maximal OD630 over 24 hr divided by maximal OD of control (control = 1) ([1]; 5 μmol/ml): 0.6977
extent of growth: maximal OD630 over 24 hr divided by maximal OD of control (control = 1) ([1]; 10 μmol/ml): 0.7107
extent of growth: maximal OD630 over 24 hr divided by maximal OD of control (control = 1) ([1]; 20 μmol/ml): 0.7396
extent of growth: maximal OD630 over 24 hr divided by maximal OD of control (control = 1) ([1]; 25 μmol/ml): 0.7361
extent of growth: maximal OD630 over 24 hr divided by maximal OD of control (control = 1) (Streptococcus sobrinus; 5 μmol/ml): 0.9301
extent of growth: maximal OD630 over 24 hr divided by maximal OD of control (control = 1) (Streptococcus sobrinus; 10 μmol/ml): 0.9360
extent of growth: maximal OD630 over 24 hr divided by maximal OD of control (control = 1) (Streptococcus sobrinus; 20 μmol/ml): 0.9087
extent of growth: maximal OD630 over 24 hr divided by maximal OD of control (control = 1) (Streptococcus sobrinus; 25 μmol/ml): 0.9224
extent of growth: maximal OD630 over 24 hr divided by maximal OD of control (control = 1) (Prevotella intermedia; 5 μmol/ml): 0.9519
extent of growth: maximal OD630 over 24 hr divided by maximal OD of control (control = 1) (Prevotella intermedia; 10 μmol/ml): 0.9564
extent of growth: maximal OD630 over 24 hr divided by maximal OD of control (control = 1) (Prevotella intermedia; 20 μmol/ml): 0.9230
extent of growth: maximal OD630 over 24 hr divided by maximal OD of control (control = 1) (Prevotella intermedia; 25 μmol/ml): 0.9158
extent of growth: maximal OD630 over 24 hr divided by maximal OD of control (control = 1) (Veillonella parvula; 5 μmol/ml): 0.9050
extent of growth: maximal OD630 over 24 hr divided by maximal OD of control (control = 1) (Veillonella parvula; 10 μmol/ml): 0.9049
extent of growth: maximal OD630 over 24 hr divided by maximal OD of control (control = 1) (Veillonella parvula; 20 μmol/ml): 0.8987
extent of growth: maximal OD630 over 24 hr divided by maximal OD of control (control = 1) (Veillonella parvula; 25 μmol/ml): 0.8933
extent of growth: maximal OD630 over 24 hr divided by maximal OD of control (control = 1) (Capnocytophaga sputigena; 5 μmol/ml): 0.8701
extent of growth: maximal OD630 over 24 hr divided by maximal OD of control (control = 1) (Capnocytophaga sputigena; 10 μmol/ml): 0.8749
extent of growth: maximal OD630 over 24 hr divided by maximal OD of control (control = 1) (Capnocytophaga sputigena; 20 μmol/ml): 0.8545
extent of growth: maximal OD630 over 24 hr divided by maximal OD of control (control = 1) (Capnocytophaga sputigena; 25 μmol/ml): 0.8789
extent of growth: maximal OD630 over 24 hr divided by maximal OD of control (control = 1) (Streptococcus mitis; 5 μmol/ml): 0.9921
extent of growth: maximal OD630 over 24 hr divided by maximal OD of control (control = 1) (Streptococcus mitis; 10 μmol/ml): 0.9622
extent of growth: maximal OD630 over 24 hr divided by maximal OD of control (control = 1) (Streptococcus mitis; 20 μmol/ml): 0.8975
extent of growth: maximal OD630 over 24 hr divided by maximal OD of control (control = 1) (Streptococcus mitis; 25 μmol/ml): 0.8423
extent of growth: maximal OD630 over 24 hr divided by maximal OD of control (control = 1) (Streptococcus gordonii; 5 μmol/ml): 0.9888
extent of growth: maximal OD630 over 24 hr divided by maximal OD of control (control = 1) (Streptococcus gordonii; 10 μmol/ml): 0.9732
extent of growth: maximal OD630 over 24 hr divided by maximal OD of control (control = 1) (Streptococcus gordonii; 20 μmol/ml): 0.9751
extent of growth: maximal OD630 over 24 hr divided by maximal OD of control (control = 1) (Streptococcus gordonii; 25 μmol/ml): 0.9954
extent of growth: maximal OD630 over 24 hr divided by maximal OD of control (control = 1) (Actinomyces viscosus; 5 μmol/ml): 0.8442
extent of growth: maximal OD630 over 24 hr divided by maximal OD of control (control = 1) (Actinomyces viscosus; 10 μmol/ml): 0.8574
extent of growth: maximal OD630 over 24 hr divided by maximal OD of control (control = 1) (Actinomyces viscosus; 20 μmol/ml): 0.8079
extent of growth: maximal OD630 over 24 hr divided by maximal OD of control (control = 1) (Actinomyces viscosus; 25 μmol/ml): 0.7647

CC(=O)N[C@H](C=O)[C@@H](O)[C@H](O)[C@H](O)CO [N-acetyl-D-mannosamine, 2-acetamido-2-deoxy-D-mannose]
extent of growth: maximal OD630 over 24 hr divided by maximal OD of control (control = 1) (Actinomyces naeslundii; 5 μmol/ml): 0.9820
extent of growth: maximal OD630 over 24 hr divided by maximal OD of control (control = 1) (Actinomyces naeslundii; 10 μmol/ml): 0.8708
extent of growth: maximal OD630 over 24 hr divided by maximal OD of control (control = 1) (Actinomyces naeslundii; 20 μmol/ml): 0.9716
extent of growth: maximal OD630 over 24 hr divided by maximal OD of control (control = 1) (Actinomyces naeslundii; 25 μmol/ml): 0.8535
extent of growth: maximal OD630 over 24 hr divided by maximal OD of control (control = 1) (Tannerella forsythia; 5 μmol/ml): 0.9742
extent of growth: maximal OD630 over 24 hr divided by maximal OD of control (control = 1) (Tannerella forsythia; 10 μmol/ml): 0.9715
extent of growth: maximal OD630 over 24 hr divided by maximal OD of control (control = 1) (Tannerella forsythia; 20 μmol/ml): 0.9706
extent of growth: maximal OD630 over 24 hr divided by maximal OD of control (control = 1) (Tannerella forsythia; 25 μmol/ml): 0.9451
extent of growth: maximal OD630 over 24 hr divided by maximal OD of control (control = 1) ([1]; 5 μmol/ml): 1.0637
extent of growth: maximal OD630 over 24 hr divided by maximal OD of control (control = 1) ([1]; 10 μmol/ml): 0.9102
extent of growth: maximal OD630 over 24 hr divided by maximal OD of control (control = 1) ([1]; 20 μmol/ml): 0.9405
extent of growth: maximal OD630 over 24 hr divided by maximal OD of control (control = 1) ([1]; 25 μmol/ml): 0.8614
extent of growth: maximal OD630 over 24 hr divided by maximal OD of control (control = 1) (Streptococcus sobrinus; 5 μmol/ml): 0.9307
extent of growth: maximal OD630 over 24 hr divided by maximal OD of control (control = 1) (Streptococcus sobrinus; 10 μmol/ml): 0.7794
extent of growth: maximal OD630 over 24 hr divided by maximal OD of control (control = 1) (Streptococcus sobrinus; 20 μmol/ml): 0.7737
extent of growth: maximal OD630 over 24 hr divided by maximal OD of control (control = 1) (Streptococcus sobrinus; 25 μmol/ml): 0.7857
extent of growth: maximal OD630 over 24 hr divided by maximal OD of control (control = 1) (Prevotella intermedia; 5 μmol/ml): 0.9530
extent of growth: maximal OD630 over 24 hr divided by maximal OD of control (control = 1) (Prevotella intermedia; 10 μmol/ml): 1.0261
extent of growth: maximal OD630 over 24 hr divided by maximal OD of control (control = 1) (Prevotella intermedia; 20 μmol/ml): 1.0229
extent of growth: maximal OD630 over 24 hr divided by maximal OD of control (control = 1) (Prevotella intermedia; 25 μmol/ml): 1.0494
extent of growth: maximal OD630 over 24 hr divided by maximal OD of control (control = 1) (Veillonella parvula; 5 μmol/ml): 1.0227
extent of growth: maximal OD630 over 24 hr divided by maximal OD of control (control = 1) (Veillonella parvula; 10 μmol/ml): 1.0174
extent of growth: maximal OD630 over 24 hr divided by maximal OD of control (control = 1) (Veillonella parvula; 20 μmol/ml): 1.0466
extent of growth: maximal OD630 over 24 hr divided by maximal OD of control (control = 1) (Veillonella parvula; 25 μmol/ml): 1.0213
extent of growth: maximal OD630 over 24 hr divided by maximal OD of control (control = 1) (Capnocytophaga sputigena; 5 μmol/ml): 0.9620
extent of growth: maximal OD630 over 24 hr divided by maximal OD of control (control = 1) (Capnocytophaga sputigena; 10 μmol/ml): 0.9635
extent of growth: maximal OD630 over 24 hr divided by maximal OD of control (control = 1) (Capnocytophaga sputigena; 20 μmol/ml): 0.9576
extent of growth: maximal OD630 over 24 hr divided by maximal OD of control (control = 1) (Capnocytophaga sputigena; 25 μmol/ml): 0.9554
extent of growth: maximal OD630 over 24 hr divided by maximal OD of control (control = 1) (Streptococcus mitis; 5 μmol/ml): 1.3409
extent of growth: maximal OD630 over 24 hr divided by maximal OD of control (control = 1) (Streptococcus mitis; 10 μmol/ml): 1.3866
extent of growth: maximal OD630 over 24 hr divided by maximal OD of control (control = 1) (Streptococcus mitis; 20 μmol/ml): 1.7155
extent of growth: maximal OD630 over 24 hr divided by maximal OD of control (control = 1) (Streptococcus mitis; 25 μmol/ml): 1.7409
extent of growth: maximal OD630 over 24 hr divided by maximal OD of control (control = 1) (Streptococcus gordonii; 5 μmol/ml): 0.9930
extent of growth: maximal OD630 over 24 hr divided by maximal OD of control (control = 1) (Streptococcus gordonii; 10 μmol/ml): 1.0254
extent of growth: maximal OD630 over 24 hr divided by maximal OD of control (control = 1) (Streptococcus gordonii; 20 μmol/ml): 0.9827
extent of growth: maximal OD630 over 24 hr divided by maximal OD of control (control = 1) (Streptococcus gordonii; 25 μmol/ml): 1.0015
extent of growth: maximal OD630 over 24 hr divided by maximal OD of control (control = 1) (Actinomyces viscosus; 5 μmol/ml): 0.8017
extent of growth: maximal OD630 over 24 hr divided by maximal OD of control (control = 1) (Actinomyces viscosus; 10 μmol/ml): 0.8753
extent of growth: maximal OD630 over 24 hr divided by maximal OD of control (control = 1) (Actinomyces viscosus; 20 μmol/ml): 0.9225
extent of growth: maximal OD630 over 24 hr divided by maximal OD of control (control = 1) (Actinomyces viscosus; 25 μmol/ml): 0.8824
